In patent US20200172529A1, “Chemical Compound, Pharmaceutical Composition Thereof, and Use and Application Thereof” (Beijing Hanmi Pharm. Co., Ltd., priority 2017, published 2020):

Assays:
Assay type in all cases: biochemical
[1] = target: T1, TYK2 kinase (Homo sapiens, UniProt P29597); experiment: Inhibition assay of TYK2 kinase activity (ADP-Glo Kinase Assay)
T1 construct: purchased Life Technologies PR8440C
Description: Determination of inhibition of TYK2 kinase activity by the examples compounds disclosed herein
Inhibition assay of TYK2 kinase activity: the method of ADP-Glo™ Kinase Assay (Promega, V9102) was used to determine the inhibitory activity of the test compounds against TYK2 kinase.
TYK2 kinase (purchased from Life Technologies, article number: PR8440C) was diluted to the 2-fold final concentration (0.8 ng/mL) using reaction buffer (40 mM Tris-HCl, pH 7.5; 20 mM MgCl2; 0.1 mg/mL BSA; 1 mM DTT), and added to a 384-well plate at 5 μL/well. The test drugs were subjected to a 10-fold gradient dilution, from 10 μM, to obtain 6 concentrations, and added to experimental wells of the 384-well plate at 2.5 μL/well. 5 μL of water and 2.5 μL of buffer were added to negative control wells. 5 μL of TYK2 and 2.5 μL of water were added to positive control wells. After incubating for 10 minutes at room temperature, the substrate ATP and polyE4Y1 (Sigma, P0275) were added at 2.5 μL/well, mixed well, and then reacted at room temperature for 60 minutes. After the reaction was completed, the kinase activity was detected according to the instruction of the kit. First, the ADP-Glo reaction reagent was added at 10 μL/well, mixed well, and reacted at room temperature for 40 minutes. The kinase detection reagent was then added at 20 μL/well, mixed well, and then reacted at room temperature for 30 minutes. The detection was then performed and the IC50s of test drugs were calculated.

[2] = target: JAK1 kinase (Homo sapiens, UniProt P23458); experiment: Inhibition assay of JAK1 kinase activity (ADP-Glo Kinase Assay)
Sequence of JAK1 kinase (P23458 whole entry): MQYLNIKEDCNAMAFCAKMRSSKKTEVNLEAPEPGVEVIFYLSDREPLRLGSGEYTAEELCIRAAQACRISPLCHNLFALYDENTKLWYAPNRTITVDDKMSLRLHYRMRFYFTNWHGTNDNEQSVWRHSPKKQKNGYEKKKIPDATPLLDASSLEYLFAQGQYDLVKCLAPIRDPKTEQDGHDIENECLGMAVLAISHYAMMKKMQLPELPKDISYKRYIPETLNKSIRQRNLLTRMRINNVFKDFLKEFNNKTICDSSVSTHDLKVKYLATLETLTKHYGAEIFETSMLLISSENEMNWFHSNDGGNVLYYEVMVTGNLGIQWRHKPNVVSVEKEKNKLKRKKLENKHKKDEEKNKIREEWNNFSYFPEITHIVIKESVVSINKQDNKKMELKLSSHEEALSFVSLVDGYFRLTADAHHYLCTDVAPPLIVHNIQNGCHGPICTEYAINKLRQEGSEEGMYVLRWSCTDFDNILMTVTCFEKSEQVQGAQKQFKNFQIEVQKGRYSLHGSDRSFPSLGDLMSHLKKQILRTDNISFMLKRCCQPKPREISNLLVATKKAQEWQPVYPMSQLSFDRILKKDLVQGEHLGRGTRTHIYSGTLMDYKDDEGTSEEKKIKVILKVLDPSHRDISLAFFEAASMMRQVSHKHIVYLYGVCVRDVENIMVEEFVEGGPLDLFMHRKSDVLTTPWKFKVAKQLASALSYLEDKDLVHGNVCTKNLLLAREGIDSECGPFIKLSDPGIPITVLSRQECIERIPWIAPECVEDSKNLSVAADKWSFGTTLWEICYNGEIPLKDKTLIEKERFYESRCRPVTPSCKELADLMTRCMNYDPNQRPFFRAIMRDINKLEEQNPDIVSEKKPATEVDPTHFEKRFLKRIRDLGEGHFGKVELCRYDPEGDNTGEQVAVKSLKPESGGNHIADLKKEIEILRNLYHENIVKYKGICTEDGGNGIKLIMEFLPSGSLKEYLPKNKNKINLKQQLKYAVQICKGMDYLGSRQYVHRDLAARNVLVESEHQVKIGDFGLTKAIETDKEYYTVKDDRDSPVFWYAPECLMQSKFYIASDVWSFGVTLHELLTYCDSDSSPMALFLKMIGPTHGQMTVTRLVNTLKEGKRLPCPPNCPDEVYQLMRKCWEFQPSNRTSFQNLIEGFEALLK
Source text: Inhibition assay of JAK1 kinase activity: the method in ADP-Glo™ Kinase Assay (Promega, V9102) was used to determine the inhibitory activity of the test compounds against JAK1 kinase.

[3] = target: JAK2 kinase (Homo sapiens, UniProt O60674); experiment: Inhibition assay of JAK2 kinase activity (ADP-Glo Kinase Assay)
Sequence of JAK2 kinase (O60674 whole entry): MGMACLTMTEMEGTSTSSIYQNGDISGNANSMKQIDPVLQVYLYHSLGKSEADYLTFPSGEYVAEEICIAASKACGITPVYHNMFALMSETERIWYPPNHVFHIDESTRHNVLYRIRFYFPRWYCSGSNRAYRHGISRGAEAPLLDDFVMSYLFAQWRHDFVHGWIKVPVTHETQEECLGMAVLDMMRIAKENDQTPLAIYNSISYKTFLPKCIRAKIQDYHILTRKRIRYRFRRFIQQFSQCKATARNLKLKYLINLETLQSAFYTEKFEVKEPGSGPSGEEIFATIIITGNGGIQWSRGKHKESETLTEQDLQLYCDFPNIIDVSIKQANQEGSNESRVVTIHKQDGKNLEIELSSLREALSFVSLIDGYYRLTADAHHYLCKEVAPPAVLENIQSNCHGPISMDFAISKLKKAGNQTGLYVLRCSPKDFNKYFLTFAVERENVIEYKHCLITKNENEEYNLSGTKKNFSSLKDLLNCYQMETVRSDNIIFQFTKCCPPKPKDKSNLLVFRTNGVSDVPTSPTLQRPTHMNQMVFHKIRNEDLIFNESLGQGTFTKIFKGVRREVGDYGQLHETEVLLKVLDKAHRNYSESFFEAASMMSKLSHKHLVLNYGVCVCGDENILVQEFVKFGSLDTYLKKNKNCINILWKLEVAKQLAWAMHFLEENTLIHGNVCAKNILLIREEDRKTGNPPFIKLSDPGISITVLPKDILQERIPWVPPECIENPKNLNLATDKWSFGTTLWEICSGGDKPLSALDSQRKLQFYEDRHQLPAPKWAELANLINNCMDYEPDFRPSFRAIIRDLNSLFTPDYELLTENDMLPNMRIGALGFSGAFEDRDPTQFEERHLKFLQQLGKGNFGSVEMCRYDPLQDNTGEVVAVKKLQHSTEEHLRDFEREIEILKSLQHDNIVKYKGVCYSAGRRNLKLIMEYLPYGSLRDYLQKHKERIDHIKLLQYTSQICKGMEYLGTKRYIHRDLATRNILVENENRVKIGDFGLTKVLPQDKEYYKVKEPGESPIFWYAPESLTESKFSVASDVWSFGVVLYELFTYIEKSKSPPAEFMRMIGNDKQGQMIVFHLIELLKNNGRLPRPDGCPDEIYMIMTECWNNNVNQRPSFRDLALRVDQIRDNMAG
Source text: Inhibition assay of JAK2 kinase activity: the method in ADP-Glo™ Kinase Assay (Promega, V9102) was used to determine the inhibitory activity of the test compounds against JAK2 kinase.

T1 sequence (P29597 whole entry): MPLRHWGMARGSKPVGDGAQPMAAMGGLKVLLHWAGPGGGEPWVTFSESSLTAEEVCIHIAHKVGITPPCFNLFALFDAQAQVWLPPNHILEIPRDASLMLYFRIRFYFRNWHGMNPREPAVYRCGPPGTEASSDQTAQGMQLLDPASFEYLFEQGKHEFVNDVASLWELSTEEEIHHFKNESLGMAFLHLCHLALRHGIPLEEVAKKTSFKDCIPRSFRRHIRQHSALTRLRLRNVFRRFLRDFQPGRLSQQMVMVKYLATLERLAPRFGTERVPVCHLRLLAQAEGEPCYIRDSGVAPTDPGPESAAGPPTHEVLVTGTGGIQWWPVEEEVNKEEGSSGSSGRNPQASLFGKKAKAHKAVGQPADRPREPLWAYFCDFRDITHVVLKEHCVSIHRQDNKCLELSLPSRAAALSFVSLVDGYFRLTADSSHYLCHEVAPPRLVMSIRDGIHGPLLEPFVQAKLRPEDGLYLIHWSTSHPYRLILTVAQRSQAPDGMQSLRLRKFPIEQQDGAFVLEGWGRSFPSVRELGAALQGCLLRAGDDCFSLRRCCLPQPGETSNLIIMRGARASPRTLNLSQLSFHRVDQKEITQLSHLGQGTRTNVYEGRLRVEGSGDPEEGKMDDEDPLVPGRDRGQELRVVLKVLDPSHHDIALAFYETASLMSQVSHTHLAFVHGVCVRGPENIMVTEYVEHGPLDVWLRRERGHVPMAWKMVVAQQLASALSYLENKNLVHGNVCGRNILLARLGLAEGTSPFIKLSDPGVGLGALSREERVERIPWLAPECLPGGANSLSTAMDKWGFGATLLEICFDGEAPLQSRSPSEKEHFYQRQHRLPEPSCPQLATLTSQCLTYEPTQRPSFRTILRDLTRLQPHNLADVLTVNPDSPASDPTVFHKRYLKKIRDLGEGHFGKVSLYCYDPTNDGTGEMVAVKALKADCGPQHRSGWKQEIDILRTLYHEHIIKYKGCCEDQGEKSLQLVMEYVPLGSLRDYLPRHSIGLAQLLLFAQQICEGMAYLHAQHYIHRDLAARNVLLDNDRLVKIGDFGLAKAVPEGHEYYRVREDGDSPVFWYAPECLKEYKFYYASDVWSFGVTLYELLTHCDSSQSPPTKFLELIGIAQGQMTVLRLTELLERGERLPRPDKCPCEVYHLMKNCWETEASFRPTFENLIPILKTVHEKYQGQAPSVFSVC

NC(=O)c1cnc(Nc2ccc3c(c2)NCC(O)CO3)nc1NCC(F)(F)F (stereo not shown) [Example 7, 4-((2,2,2-trifluoroethyl)amino)-2-((3-hydroxy-2,3,4,5-tetrahydro-benzo[b][1,4]oxazepin-7-yl)amino)pyrimidin-5-carboxamide]
IC50 [1]: < 10 nM | IC50 [2]: 10 to 100 nM | IC50 [3]: 10 to 100 nM

NC(=O)c1cnc(Nc2ccc3c(c2)NCC(O)CO3)nc1NCc1ccccc1 (stereo not shown) [Example 9, 4-(benzylamino)-2-((3-hydroxy-2,3,4,5-tetrahydro-benzo[b][1,4]oxazepin-7-yl)amino)pyrimidin-5-carboxamide]
IC50 [1]: < 10 nM | IC50 [2]: < 10 nM | IC50 [3]: 10 to 100 nM

NC(=O)c1cnc(Nc2ccc3c(c2)NC[C@H](O)CO3)nc1NC1CC1 [Example 26, (S)-4-(cyclopropylamino)-2-((3-hydroxy-2,3,4,5-tetrahydro-benzo[b][1,4]oxazepin-7-yl)amino)pyrimidin-5-carboxamide]
IC50 [1]: < 10 nM | IC50 [2]: < 10 nM | IC50 [3]: < 10 nM

CO[C@H]1CNc2cc(Nc3ncc(C(N)=O)c(NC4CC4)n3)ccc2OC1 [Example 27, (S)-4-(cyclopropylamino)-2-((3-methoxy-2,3,45-tetrahydro-benzo[b][1,4]oxazepin-7-yl)amino)pyrimidin-5-carboxamide]
IC50 [1]: < 10 nM | IC50 [2]: < 10 nM | IC50 [3]: 10 to 100 nM

NC(=O)c1cnc(Nc2ccc3c(c2)NC[C@H](O)CO3)nc1Nc1cccc2[nH]ccc12 [Example 29, 4-((1H-indol-4-yl)amino)-2-(((S)-2,3,4,5-tetrahydro-3-hydroxybenzo[b][1,4]oxazepin-7-yl)amino)pyrimidin-5-carboxamide]
IC50 [1]: < 10 nM | IC50 [2]: < 10 nM

CC(C)Nc1nc(Nc2ccc3c(c2)NC[C@H](O)CO3)ncc1C(N)=O [Example 30, 4-(isopropylamino)-2-(((S)-2,3,4,5-tetrahydro-3-hydroxybenzo[b][1,4]oxazepin-7-yl)amino)pyrimidin-5-carboxamide]
IC50 [1]: < 10 nM | IC50 [2]: 10 to 100 nM

CC(Nc1nc(Nc2ccc3c(c2)NC[C@H](O)CO3)ncc1C(N)=O)C(F)(F)F (stereo partly drawn) [Example 32, 4-(1,1,1-trifluoropropan-2-ylamino)-2-(((S)-2,3,4,5-tetrahydro-3-hydroxybenzo[b][1,4]oxazepin-7-yl)amino)pyrimidin-5-carboxamide]
IC50 [1]: 10 to 100 nM | IC50 [2]: 10 to 100 nM

NC(=O)c1cnc(Nc2ccc3c(c2)NC[C@H](O)CO3)nc1NC1CCCCC1 [Example 33, 4-(cyclohexylamino)-2-(((S)-2,3,4,5-tetrahydro-3-hydroxybenzo[b][1,4]oxazepin-7-yl)amino)pyrimidin-5-carboxamide]
IC50 [1]: < 10 nM | IC50 [2]: 10 to 100 nM

NC(=O)c1cnc(Nc2ccc3c(c2)NC[C@H](O)CO3)nc1Nc1cccc(-c2nc[nH]n2)c1 [Example 35]
IC50 [1]: < 10 nM | IC50 [2]: 10 to 100 nM

NC(=O)c1cnc(Nc2ccc3c(c2)NC[C@H](O)CO3)nc1NC1CC(O)C1 (stereo partly drawn) [Example 36, 4-((3-hydroxycyclobutyl)amino)-2-(((S)-2,3,4,5-tetrahydro-3-hydroxybenzo[b][1,4]oxazepin-7-yl)amino)pyrimidin-5-carboxamide]
IC50 [1]: < 10 nM | IC50 [2]: 10 to 100 nM

NC(=O)c1cnc(Nc2ccc3c(c2)NC[C@H](O)CO3)nc1NC1CCC(O)C1 (stereo partly drawn) [Example 37, 4-((3-hydroxycyclopentyl)amino)-2-(((S)-2,3,4,5-tetrahydro-3-hydroxybenzo[b][1,4]oxazepin-7-yl)amino)pyrimidin-5-carboxamide]
IC50 [1]: < 10 nM | IC50 [2]: < 10 nM

NC(=O)c1cnc(Nc2ccc3c(c2)NC[C@H](O)CO3)nc1NC1CCC(O)CC1 (stereo partly drawn) [Example 39, 4-((4-hydroxycyclohexyl)amino)-2(((S)-2,3,4,5-tetrahydro-3-hydroxybenzo[b][1,4]oxazepin-7-yl)amino)pyrimidin-5-carboxamide]
IC50 [1]: < 10 nM | IC50 [2]: 10 to 100 nM

CCNc1nc(Nc2ccc3c(c2)NC[C@H](O)CO3)ncc1C(N)=O [Example 40, 4-(ethylamino)-2-(((S)-2,3,4,5-tetrahydro-3-hydroxybenzo[b][1,4]oxazepin-7-yl)amino)pyrimidin-5-carboxamide]
IC50 [1]: < 10 nM | IC50 [2]: 10 to 100 nM

NC(=O)c1cnc(Nc2ccc3c(c2)NC[C@H](O)CO3)nc1NCc1ccnc2[nH]ccc12 [Example 41, 4-(((1H-pyrrolo[2,3-b]pyridin-4-yl)methyl)amino)-2-(((S)-2,3,4,5-tetrahydro-3-hydroxybenzo[b][1,4]oxazepin-7-yl)amino)pyrimidin-5-carboxamide]
IC50 [1]: < 10 nM | IC50 [2]: < 10 nM

N#CCC(=O)N1CCC(Nc2nc(Nc3ccc4c(c3)NC[C@H](O)CO4)ncc2C(N)=O)C1 (stereo partly drawn) [Example 42, 4-((1-(2-cyanoacetyl)pyrrolidin-3-yl)amino)-2-(((S)-2,3,4,5-tetrahydro-3-hydroxybenzo[b][1,4]oxazepin-7-yl)amino)pyrimidin-5-carboxamide]
IC50 [1]: < 10 nM | IC50 [2]: 10 to 100 nM

NC(=O)c1cnc(Nc2ccc3c(c2)NC[C@H](O)CO3)nc1NC12CC3CC(CC(O)(C3)C1)C2 [Example 43, 4-((1-hydroxyadamantan-3-yl)amino)-2-(((S)-2,3,4,5-tetrahydro-3-hydroxybenzo[b][1,4]oxazepin-7-yl)amino)pyrimidin-5-carboxamide]
IC50 [1]: < 10 nM | IC50 [2]: < 10 nM

NC(=O)c1cnc(Nc2ccc3c(c2)NC[C@H](O)CO3)nc1NC12CC3CC(CC(C3)C1)C2 [Example 45, 4-(adamantan-1-ylamino)-2-(((S)-2,3,4,5-tetrahydro-3-hydroxybenzo[bb][1,4]oxazepin-7-yl)amino)pyrimidin-5-carboxamide]
IC50 [1]: 10 to 100 nM | IC50 [2]: 10 to 100 nM

CNc1nc(Nc2ccc3c(c2)NC[C@H](O)CO3)ncc1C(N)=O [Example 47, 4-(methylamino)-2-(((S)-2,3,4,5-tetrahydro-3-hydroxybenzo[b][1,4]oxazepin-7-yl)amino)pyrimidin-5-carboxamide]
IC50 [1]: < 10 nM | IC50 [2]: 10 to 100 nM

NC(=O)c1cnc(Nc2ccc3c(c2)NC[C@H](O)CO3)nc1NCCCCO [Example 48, 4-((4-hydroxybutyl)amino)-2-(((S)-2,3,4,5-tetrahydro-3-hydroxybenzo[b][1,4]oxazepin-7-yl)amino)pyrimidin-5-carboxamide]
IC50 [1]: < 10 nM | IC50 [2]: < 10 nM | IC50 [3]: < 10 nM

NC(=O)c1cnc(Nc2ccc3c(c2)NC[C@H](O)CO3)nc1NC12CC3CC(C1)C(O)C(C3)C2 (stereo partly drawn) [Example 49, 4-((4-hydroxyadamantan-1-yl)amino)-2-(((S)-2,3,4,5-tetrahydro-3-hydroxybenzo[b][1,4]oxazepin-7-yl)amino)pyrimidin-5-carboxamide]
IC50 [1]: < 10 nM | IC50 [2]: < 10 nM | IC50 [3]: < 10 nM

COCCCNc1nc(Nc2ccc3c(c2)NC[C@H](O)CO3)ncc1C(N)=O [Example 52, 4-((3-methoxypropyl)amino)-2-(((S)-2,3,4,5-tetrahydro-3-hydroxybenzo[b][1,4]oxazepin-7-yl)amino)pyrimidin-5-carboxamide]
IC50 [1]: < 10 nM | IC50 [2]: 10 to 100 nM

NC(=O)c1cnc(Nc2ccc3c(c2)NC[C@H](O)CO3)nc1NC1CNC1 [Example 58, 4-(azetidin-3-ylamino)-2-(((S)-2,3,4,5-tetrahydro-3-hydroxybenzo[b][1,4]oxazepin-7-yl)amino)pyrimidin-5-carboxamide]
IC50 [1]: 10 to 100 nM | IC50 [2]: 10 to 100 nM

NC(=O)c1cnc(Nc2ccc3c(c2)NC[C@H](O)CO3)nc1NCCCN1CCOCC1 [Example 62, 4-((3-morpholinopropyl)amino)-2-(((S)-2,3,4,5-tetrahydro-3-hydroxybenzo[b][1,4]oxazepin-7-yl)amino)pyrimidin-5-carboxamide]
IC50 [1]: 10 to 100 nM | IC50 [2]: 10 to 100 nM

CCCO[C@@H]1CNc2cc(Nc3ncc(C(N)=O)c(NC4CC4)n3)ccc2OC1 [Example 84, 4-(cyclopropylamino)-2-(((R)-2,3,4,5-tetrahydro-3-propoxybenzo[b][1,4]oxazepin-7-yl)amino)pyrimidin-5-carboxamide]
IC50 [1]: 10 to 100 nM | IC50 [2]: 10 to 100 nM | IC50 [3]: 10 to 100 nM
